The results in this text go back to ChEMBL document CHEMBL4715869, “N-(Pyrimidin-2-yl)-1,2,3,4-tetrahydroisoquinolin-6-amine Derivatives as Selective Janus Kinase 2 Inhibitors for the Treatment of Myeloproliferative Neoplasms” (J Med Chem, 2020).

One assay is filed under the species Homo sapiens. In words: Selectivity index, ratio of IC50 for inhibition of FLT3 ITD mutant in human MOLM13 cells to IC50 for inhibition of JAK2 V617F mutant in human SET-2 cells. The assay is classed as cell-based.
For assay [1], the system named is Receptor-type tyrosine-protein kinase FLT3 (Homo sapiens), P36888 [UNDEFINED MUTATION]. In words: Inhibition of FLT3 ITD mutant in human MOLM13 cells assessed as residual activity at 100 nM relative to control. The assay is classed as cell-based. Conditions: MOLM-13.
Sequence of Receptor-type tyrosine-protein kinase FLT3 (Homo sapiens), P36888 [UNDEFINED MUTATION] (P36888 whole entry, looked up, change not shown): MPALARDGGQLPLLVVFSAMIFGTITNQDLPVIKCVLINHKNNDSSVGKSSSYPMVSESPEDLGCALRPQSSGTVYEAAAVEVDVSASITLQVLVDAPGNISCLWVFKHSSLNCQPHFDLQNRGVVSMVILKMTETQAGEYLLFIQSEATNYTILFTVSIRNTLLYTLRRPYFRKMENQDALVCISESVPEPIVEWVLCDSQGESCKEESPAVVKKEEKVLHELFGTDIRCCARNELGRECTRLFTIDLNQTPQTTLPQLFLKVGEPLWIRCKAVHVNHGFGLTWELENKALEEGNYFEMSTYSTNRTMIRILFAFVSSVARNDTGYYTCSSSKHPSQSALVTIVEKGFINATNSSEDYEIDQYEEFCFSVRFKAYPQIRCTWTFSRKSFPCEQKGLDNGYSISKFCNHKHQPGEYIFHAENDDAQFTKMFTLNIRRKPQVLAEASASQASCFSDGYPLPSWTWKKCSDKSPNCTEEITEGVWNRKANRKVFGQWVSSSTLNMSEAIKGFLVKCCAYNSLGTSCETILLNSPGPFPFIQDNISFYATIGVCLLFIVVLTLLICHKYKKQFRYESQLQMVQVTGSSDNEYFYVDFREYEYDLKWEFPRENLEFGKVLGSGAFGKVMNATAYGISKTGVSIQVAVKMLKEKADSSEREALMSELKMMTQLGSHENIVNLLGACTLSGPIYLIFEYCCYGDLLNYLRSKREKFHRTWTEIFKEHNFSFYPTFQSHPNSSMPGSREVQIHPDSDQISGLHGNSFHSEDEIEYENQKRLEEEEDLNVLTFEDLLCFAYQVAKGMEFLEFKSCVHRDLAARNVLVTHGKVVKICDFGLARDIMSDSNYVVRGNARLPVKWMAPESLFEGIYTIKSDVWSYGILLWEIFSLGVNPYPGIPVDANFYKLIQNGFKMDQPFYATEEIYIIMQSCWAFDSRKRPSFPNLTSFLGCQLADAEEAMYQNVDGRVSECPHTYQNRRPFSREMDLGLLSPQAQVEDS

On to `CC(C)n1cc(-c2nc(Nc3ccc4c(c3)CCN(C(=O)CO)C4)ncc2F)cn1`, for which the Ratio IC50 in the assay filed under Homo sapiens turned out to be 0.79. For the same compound, in assay [1], the Activity was 39%. `Cc1cnc(Nc2ccc3c(c2)CCN(CCC#N)C3)nc1-c1cnn(C(C)C)c1`: the Ratio IC50 in the assay listed under Homo sapiens stood at 1.2. The Activity in assay [1] worked out at 35%.

For the compound `CCCCN1CCc2cc(Nc3ncc(C)c(-c4cnn(C(C)C)c4)n3)ccc2C1`, in the assay listed under Homo sapiens, the Ratio IC50 was determined as 1.3. Besides, the Activity in assay [1] is 57%. The matching figures for `Cc1cnc(Nc2ccc3c(c2)CCN(CCO)C3)nc1-c1cnn(C(C)C)c1`: 3.9 and 66%. For the compound `CCNC(=O)N1CCc2cc(Nc3ncc(C)c(-c4cnn(C(C)C)c4)n3)ccc2C1`, the Ratio IC50 in the assay filed under Homo sapiens was 0.45. For the compound `Cc1cnc(Nc2ccc3c(c2)CCN(C(=O)Nc2cccc(Cl)c2)C3)nc1-c1cnn(C(C)C)c1`, the Ratio IC50 in the assay filed under Homo sapiens came out at 0.6. Moreover, the Activity in assay [1] was 99%.

`Cc1cnc(Nc2ccc3c(c2)CN(CCO)C3)nc1-c1cnn(C(C)C)c1`: the Activity in assay [1] worked out at 67%. For the compound `COC(=O)CCCN1CCc2cc(Nc3ncc(C)c(-c4cnn(C(C)C)c4)n3)ccc2C1`, the Ratio IC50 in the assay filed under Homo sapiens was 1.2. As to `Cc1cnc(Nc2ccc3c(n2)CCN(CCCO)C3)nc1-c1cnn(C(C)C)c1`, the Ratio IC50 in the assay filed under Homo sapiens amounted to 1.1. In assay [1], the Activity came out at 88%.

With `CC(C)n1cc(-c2nc(Nc3ccc4c(c3)CCN(CCCO)C4)ncc2F)cn1`, in the assay listed under Homo sapiens, the Ratio IC50 turned out to be 1.4. Further, the Activity in assay [1] came out at 44%. In the case of `CCCNC(=O)N1CCc2cc(Nc3ncc(C)c(-c4cnn(C(C)C)c4)n3)ccc2C1`, the Ratio IC50 in the assay listed under Homo sapiens turned out to be 1.2. Turning to `CCN(CC)C(=O)/C=C/CN1CCc2cc(Nc3ncc(C)c(-c4cnn(C(C)C)c4)n3)ccc2C1`, the Ratio IC50 in the assay filed under Homo sapiens came to 2. In addition, the Activity in assay [1] came to 66%.

For `Cc1ccc(C(=O)CCC(=O)N2CCc3cc(Nc4ncc(C)c(-c5cnn(C(C)C)c5)n4)ccc3C2)cc1`, the Ratio IC50 in the assay filed under Homo sapiens was 1.7. For the compound `CC(C)n1cc(-c2nc(Nc3ccc4c(c3)CCN(CCO)C4)ncc2F)cn1`, the Ratio IC50 in the assay filed under Homo sapiens is 0.84. The Activity in assay [1] came to 43%.

On to `C#CCN1CCc2cc(Nc3ncc(C)c(-c4cnn(C(C)C)c4)n3)ccc2C1`, for which, in assay [1], the Activity amounted to 79%. Regarding `Cc1cnc(Nc2ccc3c(c2)CCN(C/C=C/C(=O)NCCN2CCCCC2)C3)nc1-c1cnn(C(C)C)c1`, the Ratio IC50 in the assay listed under Homo sapiens was 3.8. For the compound `CC(C)n1cc(-c2nc(Nc3ccc4c(c3)CCN(CCCCO)C4)ncc2F)cn1`, in the assay filed under Homo sapiens, the Ratio IC50 was 0.75. For the same compound, the Activity in assay [1] is 39%. For the compound `Cc1cnc(Nc2ccc3c(c2)CCN(C/C=C/C(=O)O)C3)nc1-c1cnn(C(C)C)c1`, the Ratio IC50 in the assay filed under Homo sapiens was found to be 2.5. The Activity in assay [1] was 78%. `Cc1cnc(Nc2ccc3c(c2)CCN(C(=O)CCCN(C)C)C3)nc1-c1cnn(C(C)C)c1`: in the assay filed under Homo sapiens, the Ratio IC50 worked out at 1.5. For `CC(C)n1cc(-c2nc(Nc3ccc4c(c3)CCN(CCCCCO)C4)ncc2F)cn1`, the Ratio IC50 in the assay filed under Homo sapiens was 0.72. Also, the Activity in assay [1] is 42%. For the compound `Cc1cnc(Nc2ccc3c(c2)CCN3CCO)nc1-c1cnn(C(C)C)c1`, in the assay filed under Homo sapiens, the Ratio IC50 was 0.54. Further, the Activity in assay [1] is 79%. As to `CC#CCN1CCc2cc(Nc3ncc(C)c(-c4cnn(C(C)C)c4)n3)ccc2C1`, the Ratio IC50 in the assay filed under Homo sapiens was determined as 2. In assay [1], the Activity was found to be 85%. The matching figures for `C=CCN1CCc2cc(Nc3ncc(C)c(-c4cnn(C(C)C)c4)n3)ccc2C1`: 3 and 67%. Take `Cc1cnc(Nc2cc3c(cc2F)CN(CCO)CC3)nc1-c1cnn(C(C)C)c1`: the Ratio IC50 in the assay filed under Homo sapiens was greater than 1.2.

Turning to `COC(=O)/C=C/CN1CCc2ccc(Nc3ncc(C)c(-c4cnn(C(C)C)c4)n3)cc2C1`, the Ratio IC50 in the assay filed under Homo sapiens was found to be 6. In assay [1], the Activity stood at 43%.

Take `Cc1cnc(Nc2ccc3c(c2)CCN(CCCO)C3)nc1-c1cnn(C(C)C)c1`: the Ratio IC50 in the assay filed under Homo sapiens is 3.4. The Activity in assay [1] was 62%. With `Cc1cnc(Nc2ccc3c(c2)CCN(C/C=C/C(=O)NC(C)(C)C)C3)nc1-c1cnn(C(C)C)c1`, in the assay filed under Homo sapiens, the Ratio IC50 was 1.7. For `Cc1cnc(Nc2ccc3c(c2)CCN(CCCCCO)C3)nc1-c1cnn(C(C)C)c1`, in assay [1], the Activity stood at 63%.
